The nature of this series: Solubility of precursor compounds in methanol. In kind it is physicochemical. As for the experimental part:
Ca(dbm)2.4H2O (1 g) was weighed into a 250 mL conical flask. Methanol (50 mL) was added, the flask was stoppered and the solution was swirled for […]2 min. The solution was incubated in a water bath at varying temperatures (20°, 30° or 40° C.) for a period of 4 or 17 h. At the end of the incubation period, two 20 mL aliquots of the solution were filtered into separate, pre-weighed round bottomed flasks. […] Experiments for all conditions were carried out in duplicate. The results of the solubility experiments are compiled in Table 2.

For `O.O.O.O.O=C(C=C([O-])c1ccccc1)c1ccccc1.O=C(C=C([O-])c1ccccc1)c1ccccc1.[Ca+2]` [Ca(dbm)2•4H2O, Ca(dbm)2.4H2O], the solubility in methanol turned out to be 1.78 ± 0.1 g/100 mL (incubation 20° C., 4 h); 1.91 ± 0.5 g/100 mL (incubation 20° C., 17 h); 1.86 ± 0.1 g/100 mL (incubation 30° C., 4 h); 1.88 ± 0.5 g/100 mL (incubation 30° C., 17 h); 1.98 ± 0.2 g/100 mL (incubation 40° C., 4 h); 1.92 ± 0.4 g/100 mL (incubation 40° C., 17 h). Moreover, the “solubility in methanol relative to the acac and benzoylacetone calcium complexes” value (qualitative comparison) is “higher solubility”.

These data come from patent US20100094430A1, “Device” (priority 2006, published 2010).
